One compound from publication PMC6093650, “Antidepressive and anxiolytic effects of ostruthin, a TREK-1 channel activator” (PLoS ONE, 2018) can be followed below.

One assay addresses Kv1.4 (Homo sapiens, UniProt P22459). Put plainly: whole-cell patch-clamp of Kv1.4 currents in 293T cells. It counts as cell-based. The following applies: n = 5. From the text: (§1) For recordings of K^+ channel currents, we prepared stable cell lines for TREK-1, TWIK-related acid-sensitive K^+ channel (TASK-1), strongly inwardly rectifying K^+ channel (Kir2.1), and human ether-a-go-go-related gene (HERG-1) channels and transiently expressed other channels in 293T cells using a calcium-phosphate transfection method. For the establishment of the stable lines, we used lentiviral vectors, and the preparation methods for the lentiviral vectors were described in our previous report. TR-1 cells, which stably expressed TREK-1 channel and were grown on a small cover glass (3 × 18 mm), were placed in a recording chamber with an internal volume of 200 μl. Whole-cell currents were recorded in Tyrode solution using an Axopatch 200B amplifier (Axon Instruments, Foster City, CA) at 25°C. Tyrode solution contained (in mM): NaCl 140, KCl 5.4, NaH2PO4 0.33, CaCl2 2, MgCl2 1, HEPES 5, and glucose 5.5 (pH 7.4 adjusted with NaOH). […] Perfusion (100 μl/min) was continued to maintain the water level throughout recordings. pH and osmotic pressure of solutions were measured with a pH meter (Horiba, Kyoto, Japan) and a freezing point osmometer (Knauer, Berlin, Germany), respectively. […]

In assay [1] the test system is mice anxiety-like behavior. In words: elevated plus maze. It counts as in vivo. From the text:
Male ICR mice (n = 317 in total) aged 5 weeks and weighing 32 ± 2 g were purchased from Shimizu Laboratory Supplies (Kyoto, Japan). For the social defeat stress test, we used 28 C57BL/6J mice (5 weeks old, Shimizu Laboratory Supplies) and 30 ICR mice (7–8 weeks old, Charles River Labs Japan, Yokohama, Kanagawa, Japan). Mice were maintained for at least 1 week prior to experiments. Animals were kept in groups in plastic cages. They had free access to food and water, and were kept in a 12-h light/dark cycle (08:00–20:00). Experiments were carried out between 10:00 and 18:00 in a quiet and air-conditioned experimental room, in which mice were habituated for at least 30 min before each experiment. Animal experiments were performed in accordance with the guidelines of the Physiological Society of Japan and were approved by the Committees on Animal Experiments at Kansai Medical University and the Kurashiki University of Science and the Arts. Ostruthin was initially dissolved in DMSO at higher concentration (100 mM) and then diluted in phosphate-buffered saline (PBS). The diluted solution was mixed vigorously for more than 10 min before the experiments, and an equal volume of DMSO was added to PBS as a control. PBS and ostruthin were administered intraperitoneally 30 min before mice behavioral tests (0.01 ml/g body weight). Each animal was used only once, except for the wheel running test, which was carried out immediately after elevated plus maze.
The elevated plus maze apparatus consisted of four arms set in a cross pattern from a neutral central square (6 × 6 cm). Two opposite arms were delimited by vertical walls (closed arms, 30 × 15 × 6 cm), whereas the other two arms had unprotected edges (open arms, 30 × 6 cm). The maze was elevated 40 cm above the floor. At the beginning of each 5 min test session, a mouse was placed in the central neutral area, facing one of the open arms. The total number of the entries to open arms and time spent in the open arms were measured. After removal of the animal, the apparatus was cleaned and wiped.

The next assay concerns the target KCNQ-3 (Homo sapiens, UniProt O43525). Put plainly: whole-cell patch-clamp of KCNQ-3 currents in 293T cells. Type of assay: cell-based. To be noted: 100 μM (data not shown).
Description: as §1

For the next assay, the target named is T1, HERG-1 (Homo sapiens, UniProt Q12809).
T1 construct: expressed in transfected cells
T1 sequence (Q12809 whole entry): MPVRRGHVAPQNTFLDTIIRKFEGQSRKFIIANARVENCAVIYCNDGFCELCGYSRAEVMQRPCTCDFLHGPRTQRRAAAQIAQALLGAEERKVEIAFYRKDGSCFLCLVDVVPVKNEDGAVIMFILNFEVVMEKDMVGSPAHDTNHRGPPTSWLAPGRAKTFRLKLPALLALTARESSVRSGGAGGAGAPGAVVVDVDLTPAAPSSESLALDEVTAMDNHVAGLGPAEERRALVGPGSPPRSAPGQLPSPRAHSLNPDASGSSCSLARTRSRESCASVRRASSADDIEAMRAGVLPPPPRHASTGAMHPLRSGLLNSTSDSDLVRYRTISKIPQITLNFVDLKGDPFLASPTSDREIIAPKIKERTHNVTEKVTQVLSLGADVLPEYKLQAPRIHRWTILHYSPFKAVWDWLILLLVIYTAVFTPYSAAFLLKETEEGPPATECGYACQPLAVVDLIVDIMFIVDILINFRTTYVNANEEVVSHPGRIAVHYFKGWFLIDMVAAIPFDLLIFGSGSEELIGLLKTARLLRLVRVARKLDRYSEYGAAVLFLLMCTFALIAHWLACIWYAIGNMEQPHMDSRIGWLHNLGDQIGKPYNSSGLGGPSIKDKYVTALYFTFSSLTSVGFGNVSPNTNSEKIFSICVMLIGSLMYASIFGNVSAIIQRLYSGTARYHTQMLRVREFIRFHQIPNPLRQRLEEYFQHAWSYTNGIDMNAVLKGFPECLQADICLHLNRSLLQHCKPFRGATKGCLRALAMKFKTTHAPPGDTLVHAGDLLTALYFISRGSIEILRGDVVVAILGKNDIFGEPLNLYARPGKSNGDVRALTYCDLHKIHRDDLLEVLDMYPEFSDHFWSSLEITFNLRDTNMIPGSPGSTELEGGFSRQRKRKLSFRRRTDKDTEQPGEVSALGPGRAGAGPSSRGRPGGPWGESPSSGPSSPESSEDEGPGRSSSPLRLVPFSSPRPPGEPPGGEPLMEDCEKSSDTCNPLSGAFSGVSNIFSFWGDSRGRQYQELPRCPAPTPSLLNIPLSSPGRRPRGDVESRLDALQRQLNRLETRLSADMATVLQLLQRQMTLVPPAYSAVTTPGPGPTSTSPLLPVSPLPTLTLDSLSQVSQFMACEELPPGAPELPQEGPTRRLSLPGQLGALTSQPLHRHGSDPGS
Put plainly: whole-cell patch-clamp of HERG-1 tail currents in 293T cells. It counts as cell-based. To be noted: outward tail current, n = 5.
Description: as §1
On the technique in general: The patch-clamp technique gives a direct electrical read-out from membranes.

Chain of Kv1.4 (P22459 whole entry): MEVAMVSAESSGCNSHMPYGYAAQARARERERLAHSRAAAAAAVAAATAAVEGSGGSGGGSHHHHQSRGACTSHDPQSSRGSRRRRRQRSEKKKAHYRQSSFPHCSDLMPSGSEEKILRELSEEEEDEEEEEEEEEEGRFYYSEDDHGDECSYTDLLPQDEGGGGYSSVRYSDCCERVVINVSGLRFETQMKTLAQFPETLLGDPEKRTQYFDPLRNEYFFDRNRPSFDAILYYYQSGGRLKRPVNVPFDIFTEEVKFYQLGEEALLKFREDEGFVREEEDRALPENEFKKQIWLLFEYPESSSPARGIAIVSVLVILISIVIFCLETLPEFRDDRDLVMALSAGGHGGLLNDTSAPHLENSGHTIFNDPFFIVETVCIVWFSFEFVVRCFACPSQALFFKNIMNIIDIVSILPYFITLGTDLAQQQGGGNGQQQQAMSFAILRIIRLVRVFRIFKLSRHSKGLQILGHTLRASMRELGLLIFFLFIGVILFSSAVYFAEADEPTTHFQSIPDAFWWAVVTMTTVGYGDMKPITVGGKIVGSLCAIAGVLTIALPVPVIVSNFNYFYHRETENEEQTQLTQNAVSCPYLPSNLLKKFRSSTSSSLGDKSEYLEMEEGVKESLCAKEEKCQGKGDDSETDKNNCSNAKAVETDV

The term IC50 denotes the concentration needed to halve the response being measured. Low values mean greater potency, high ones weaker potency. Regarding `CC(C)=CCC/C(C)=C/Cc1cc2ccc(=O)oc2cc1O` [ostruthin], the IC50 at Kv1.4 is 269 µM; on HERG-1, 216 µM. For the same compound, the “number of entries to the open arm” value in assay [1] (20 mg/kg i.p., vs 5 mg/kg) is “decreased”; in assay [1] (2 and 5 mg/kg i.p. 30 min before test, vs 0 mg/kg), “increased”; in assay [1] (amlodipine experiment: single compound vs PBS, ostruthin 5 mg/kg or amlodipine 10 mg/kg, n = 6) it was “increased”; in assay [1] (ostruthin 5 mg/kg co-administered with amlodipine 10 mg/kg, vs amlodipine, n = 6), “did not increase”. The “time spent on the open arm” value in assay [1] (20 mg/kg i.p., vs 5 mg/kg) is reported as “decreased”. Further, in assay [1] (ostruthin 5 mg/kg in the absence of amlodipine, vs PBS, n = 6), the “time spent in the open arm” value was “increased”. Further, the “increase of time spent in the open arm” value in assay [1] (ostruthin 5 mg/kg in the presence of amlodipine 10 mg/kg, n = 6) was “did not”. Besides, on KCNQ-3, the “effect on KCNQ-3 channels” value is “no effect”.
